Results from article PMC10721786, “Development of a potent benzonitrile-based inhibitor of glutaminyl-peptide cyclotransferase-like protein (QPCTL) with antitumor efficacy” (Signal Transduction and Targeted Therapy, 2023).

Columns and labels:
[1] = test system: B16F10 cells; assay: Tumor challenge: B16F10 tumors in C57BL/6 mice; assay type: in vivo; settings: B16F10 in C57BL/6 mice, anti-CD3 antibody 200 µg/mouse, QP5038 25 mg/kg daily
Protocol: C57BL/6 mice were obtained from Shanghai Slaccas Laboratory Animal Co., Ltd.. Male mice were implanted subcutaneously with 1 x 10^^6 B16F10 cells resuspended in 100μL of DMEM on Day 0. Anti-PD-1 (Clone RMP1-14, BioXCell, Cat. # BE0146) or mouse IgG2a isotype control (Clone 2A3, BioXCell, Cat. # BE0089) was dosed at 80 µg per mouse intraperitoneally starting on day 12 after tumor implantation, followed by a once-a-week regimen. QPCTL inhibitor was intraperitoneally administered at 25 mg/kg once a day. Tumors were measured daily, and mice were sacrificed 24 days after tumor challenge. Tumor volumes were measured in two dimensions (length and width) and the volume was calculated using the formula, tumor size (mm^3) = (length × width^2) × 0.5.
Briefly, male mice were implanted subcutaneously with 5 x 10^5 B16F10 cells resuspended in 100 μL of DMEM on Day 0. Anti-PD-1 antibody or mouse IgG2a isotype control was dosed at 80 µg per mouse intraperitoneally starting on day 6 after tumor implantation, followed by a once-a-week regimen. QPCTL inhibitors was intraperitoneally administered at 25 mg/kg once a day since day 6. Tumors were measured every three days, and mice were sacrificed on day 15. […]
Tumor challenge with T cell depletion. […] Animal weights and tumor volumes were measured twice weekly throughout the study. […] Data were acquired on flow cytometry analyzer and analyzed using Flowjo software.

[2] = test system: Raji and B16F10 cells; assay: Cell viability (CCK-8) in Raji and B16F10 cells; assay type: cell-based; settings: Fig. S5
Protocol: Raji cells (5000 cells/well), B16F10 cells (3000 cells/well) and BMDM (10000 cells/well) were plated in 96-well and cell viability was examined at the time points shown in the figures, with the help of Cell Counting Kit 8 (CCK-8) (Share-bio, Cat. # B-CCK8) according to the manufacturer’s recommendations.

[3] = test system: pGlu-CD47; assay: Flow cytometry of pGlu-CD47 (hCD47-CC2C6 binding) in HEK293T cells; assay type: cell-based, human
Protocol: Binding to cell surface CD47 was assessed by staining cells with fluorochrome-labeled antibodies clone CC2C6 (BioLegend, Cat. # 323102) and B6H12 (Abcam, Cat. # ab134485) to human CD47 at a dilution of 1:100 in PBS containing 1% FBS (FACS buffer) for 30 min on ice, while protected from light. SIRPα binding to CD47 was assessed by incubating cells with PE labeled recombinant human SIRPα/ CD172α Protein, Fc tag (ACRO Biosystems, Cat. # SIA-HP252) or PE labeled mouse SIRPα Protein, His tag (ACRO Biosystems, Cat. # SIA-MP2H6) for 1 hour on ice, while protected from light.

For Cn1cncc1C1CCN(c2c(C#N)cccc2-c2ccc(F)nc2)CC1 [QP5038], the “enhancement of anti-PD-1 antibody-mediated tumor inhibition under T cell depletion” value [1] was “blocked the enhancement”, the cell viability [2] was “did not markedly impair” and the “inhibitory effect on CD47 pyroglutamation compared to SEN177 and PQ912” value ([3]; 100 nM, 48 h) was “superior inhibitory effects”. The IC50 ([3]; Homo sapiens, HEK-293T, treatment 48 h, read-out: IC50, dose-dependent inhibition of pGlu-CD47) was 3.3 ± 0.5 nM.
